Results taken from publication PMC4129951 (Nature chemical biology, 2010).

Experiments:
[1] = target: T1, LysC; aspartokinase III (Escherichia coli, UniProt P08660); assay: in vitro reaction, product confirmed by LC-MS; type: biochemical; conditions: product trapped with L-Cys as β-aspartyl cysteine
T1 sequence (P08660 2-449): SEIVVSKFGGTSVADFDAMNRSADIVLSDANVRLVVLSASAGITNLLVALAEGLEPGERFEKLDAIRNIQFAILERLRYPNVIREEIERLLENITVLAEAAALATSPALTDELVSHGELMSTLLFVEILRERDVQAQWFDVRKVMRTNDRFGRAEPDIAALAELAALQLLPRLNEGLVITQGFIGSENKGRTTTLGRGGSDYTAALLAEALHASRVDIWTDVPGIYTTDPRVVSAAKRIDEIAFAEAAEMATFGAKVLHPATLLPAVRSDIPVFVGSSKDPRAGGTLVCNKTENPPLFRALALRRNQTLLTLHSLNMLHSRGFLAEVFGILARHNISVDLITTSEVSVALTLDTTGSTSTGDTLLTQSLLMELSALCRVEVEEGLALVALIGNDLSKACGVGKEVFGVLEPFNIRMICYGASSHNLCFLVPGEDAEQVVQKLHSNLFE

[2] = target: T2, ProA(wt); γ-glutamyl phosphate reductase (Escherichia coli, UniProt P07004); assay: NADPH oxidation in coupled assay with ProB; type: biochemical; conditions: γ-glutamyl phosphate formed in situ by ProB from L-Glu
T2 sequence (P07004 1-417): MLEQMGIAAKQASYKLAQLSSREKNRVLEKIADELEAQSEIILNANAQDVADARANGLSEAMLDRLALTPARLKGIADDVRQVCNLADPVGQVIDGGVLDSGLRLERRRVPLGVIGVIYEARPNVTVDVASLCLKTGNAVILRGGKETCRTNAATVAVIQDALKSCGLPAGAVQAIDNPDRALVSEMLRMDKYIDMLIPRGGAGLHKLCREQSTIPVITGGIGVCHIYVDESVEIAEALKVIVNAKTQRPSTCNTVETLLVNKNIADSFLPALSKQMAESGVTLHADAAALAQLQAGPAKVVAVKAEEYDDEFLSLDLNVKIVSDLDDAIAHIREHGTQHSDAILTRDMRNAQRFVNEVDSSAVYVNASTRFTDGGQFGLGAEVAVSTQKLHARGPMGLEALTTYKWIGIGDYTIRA

SMILES | in vitro reaction, product confirmed by LC-MS [1] | NADPH oxidation in coupled assay with ProB [2]
N[C@@H](CC(=O)O)C(=O)O [L-Asp] | LysC from E. coli was used to convert L-Asp to β-aspartyl phosphate | –
NC(=O)C1=CN([C@@H]2O[C@H](COP(=O)(O)OP(=O)(O)OC[C@H]3O[C@@H](n4cnc5c(N)ncnc54)[C@H](OP(=O)(O)O)[C@@H]3O)[C@@H](O)[C@H]2O)C=CC1 [NADPH] | – | A coupled in vitro assay, which measures NADPH oxidation by ProA(wt)
